Experimental data published in paper PMC6290777, “Inhalation of the prodrug PI3K inhibitor CL27c improves lung function in asthma and fibrosis” (Nature Communications, 2018).
Several values for one entry are separate records, joined by “and”; a condition that tells them apart may be missing. Equal entries are not always repeated.

Columns and labels:
[1] = tested on: human lung fibroblasts (HLF); assay: Cell survival of human lung fibroblasts (CellTiter-Glo); format: cell-based; settings: TGF-β 10 ng/ml, 48 hours; CL27c 1 and 10 µM
Method: (§1) Human lung fibroblast cell culture
Two separate human lung fibroblast cell lines isolated from IPF patients were used: LL97a derived from a person (ATCC, Manassas, USA) and DHLF-IPF (#CC-7231, Lonza, Switzerland). Control cell lines were CCD-16Lu, obtained from a person that died of astrocytoma –a disease unrelated to IPF - (ATCC) and NHLF (#CC-2512; Lonza). LL97a and CCD-16Lu cells were cultured in Dulbecco's modified Eagles medium (DMEM, Sigma Aldrich, Dorset, UK). Media was supplemented with penicillin/streptomycin (100 U/ml, Thermo-Fischer, Germany) and 10% fetal bovine serum (FBS, Thermo-Fischer, Germany). Cells from Lonza were cultured in the FGMTM (#CC-3132, Lonza). […]
(§2) Caliper based assay, the reaction was terminated by addition of EDTA buffer. Substrate and product were separated and quantified electrophoretically using the microfluidic-based and the assay plate was read on Caliper LabChip 3000 Drug Discovery System from Caliper Life Sciences (Walthan, MA, USA). ADP Glo was another method of detection used for some kinase assays where data was obtained by quantifying the intensity of luminescence. For ADP Glo based assay, the reaction was terminated by applying the Promega ADP Glo Kinase Assay kit and the assay plate was read on a LJL Biosystems Analyst HT. […]

[2] = Glycemia and insulin challenge after inhaled CL27c; format: in vivo, mice; settings: N.S. vs vehicle
Method: To define whether this prodrug was suitable for inhaled administration, CL27c was studied to evaluate selected ADME (absorption, distribution, metabolism, and excretion) and pharmacokinetic properties. First, stability of CL27c and CL27e was analyzed in mouse plasma (Supplementary Table 1) and in mouse, rat, and human liver microsomes in the presence of nicotinamide adenine dinucleotide phosphate (NADPH; Supplementary Table 2). Next, clearance of CL27c was analyzed in C57BL/6J mice after either intra-venous or oral administration. […] Clearance of CL27c and CL27e after oral administration could not be determined due to their low bioavailability (Supplementary Table 3). Next, pharmacokinetics after inhalation was studied in C57BL/6J mice after delivering an aerosolized micro-suspension of CL27c. As shown in Table 1 and Supplementary Fig. 1b, CL27c dose-dependently reached the lungs and its metabolite CL27e was detectable after inhalation of the highest dose. […] Therefore, the inhaled prodrug promotes local effects but prevents systemic absorption of pharmacologically relevant amounts of the active compound.
Animals were fasted overnight and, the day after, they were treated for 30 min with aerosolized CL27c (2 mg/ml in 0.5 % tylaxopol/saline solution). […]

PI3Kα = biological target: T1, PI3Kα (Homo sapiens, UniProt P42336); assay: Kinome profiling assay (Nanosyn 250-kinase panel); format: biochemical
T1 construct: purchased Nanosyn Biology, Inc., Santa Clara, CA, USA
T1 sequence (P42336 whole entry, species assumed): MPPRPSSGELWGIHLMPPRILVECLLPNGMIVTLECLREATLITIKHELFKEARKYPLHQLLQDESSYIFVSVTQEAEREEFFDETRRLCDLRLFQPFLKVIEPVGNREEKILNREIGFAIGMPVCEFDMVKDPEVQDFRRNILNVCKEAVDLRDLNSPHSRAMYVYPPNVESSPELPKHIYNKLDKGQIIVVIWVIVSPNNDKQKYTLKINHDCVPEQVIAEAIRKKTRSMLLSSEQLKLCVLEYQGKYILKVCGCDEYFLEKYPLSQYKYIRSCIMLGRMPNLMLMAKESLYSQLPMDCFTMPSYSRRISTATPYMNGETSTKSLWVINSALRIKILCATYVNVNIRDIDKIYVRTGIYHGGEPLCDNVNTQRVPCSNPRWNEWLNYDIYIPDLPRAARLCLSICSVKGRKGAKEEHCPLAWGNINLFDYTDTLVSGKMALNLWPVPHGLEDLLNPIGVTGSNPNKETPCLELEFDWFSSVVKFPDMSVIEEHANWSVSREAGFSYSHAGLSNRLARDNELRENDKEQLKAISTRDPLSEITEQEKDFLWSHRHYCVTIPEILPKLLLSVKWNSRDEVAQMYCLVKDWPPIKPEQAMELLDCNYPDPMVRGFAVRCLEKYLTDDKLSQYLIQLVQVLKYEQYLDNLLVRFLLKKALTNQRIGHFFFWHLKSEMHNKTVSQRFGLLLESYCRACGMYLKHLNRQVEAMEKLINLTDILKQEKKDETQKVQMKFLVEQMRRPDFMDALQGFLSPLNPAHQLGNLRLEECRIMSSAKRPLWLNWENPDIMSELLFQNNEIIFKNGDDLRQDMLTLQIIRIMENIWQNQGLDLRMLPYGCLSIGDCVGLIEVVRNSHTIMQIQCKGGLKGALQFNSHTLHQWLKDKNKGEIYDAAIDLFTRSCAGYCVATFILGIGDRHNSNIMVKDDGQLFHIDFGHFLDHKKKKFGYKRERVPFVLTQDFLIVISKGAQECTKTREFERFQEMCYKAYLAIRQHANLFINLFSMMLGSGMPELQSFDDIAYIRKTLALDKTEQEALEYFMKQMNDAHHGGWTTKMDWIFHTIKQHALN
T1 sequence (P27986 whole entry partner, species assumed): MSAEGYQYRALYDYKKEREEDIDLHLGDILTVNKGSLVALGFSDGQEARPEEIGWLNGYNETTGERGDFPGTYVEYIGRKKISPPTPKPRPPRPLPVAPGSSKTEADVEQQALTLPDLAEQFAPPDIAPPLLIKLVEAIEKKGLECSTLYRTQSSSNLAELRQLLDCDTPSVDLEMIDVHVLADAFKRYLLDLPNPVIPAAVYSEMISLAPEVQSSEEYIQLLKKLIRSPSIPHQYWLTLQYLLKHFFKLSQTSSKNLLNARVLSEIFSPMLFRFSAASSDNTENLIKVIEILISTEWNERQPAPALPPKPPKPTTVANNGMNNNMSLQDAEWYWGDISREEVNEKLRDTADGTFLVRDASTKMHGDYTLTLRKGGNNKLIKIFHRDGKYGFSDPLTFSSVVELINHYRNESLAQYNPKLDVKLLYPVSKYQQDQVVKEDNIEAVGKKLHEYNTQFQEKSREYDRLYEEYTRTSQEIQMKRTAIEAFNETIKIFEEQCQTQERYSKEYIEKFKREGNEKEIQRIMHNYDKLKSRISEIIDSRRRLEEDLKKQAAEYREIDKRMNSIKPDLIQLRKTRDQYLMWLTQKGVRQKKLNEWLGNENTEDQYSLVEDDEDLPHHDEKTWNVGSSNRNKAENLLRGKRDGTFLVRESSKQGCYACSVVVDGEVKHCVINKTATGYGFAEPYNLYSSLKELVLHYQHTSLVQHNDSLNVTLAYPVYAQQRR
Method: Supplementary Figure 2: Kinase selectivity of CL27e
Kinase selectivity of the CL27c active metabolite, CL27e, was evaluated at 0.02 µM and 0.2 µM using the Nanosyn 250-kinase panel. Red color indicates selectivity for PI3Kα, on which CL27e […]
Results are expressed as mean percentage inhibition for each
(1 picture or pasted object on this page, not shown here)
as §1
Two separate human lung fibroblast cell lines isolated from IPF patients were used: LL97a derived from a person (ATCC, Manassas, USA) and DHLF-IPF (#CC-7231, Lonza, Switzerland). Control cell lines were CCD-16Lu, obtained from a person that died of astrocytoma –a disease unrelated to IPF - (ATCC) and NHLF (#CC-2512; Lonza). […]
as §2

Row | Compound | survival of HLF lines [1] | drop in glycemia 10 min after an insulin challenge [2] | glycemia [2] | inhibition of PI3Kα (PI3Kα; high concentration (0.2 µM), 0.2 µM) | inhibition of PI3Kα (PI3Kα; low concentration (0.02 µM))
1 | COC(=O)c1cccc(Cn2cc(-c3cccc4c(=O)cc(N5CCOCC5)[nH]c34)nn2)c1 [CL27c] | reduced survival at 1 and 10 µM | 17.45 ± 3.00 % drop | 213.0 ± 5.6 mg/dL |  | 
2 | O=C(O)c1cccc(Cn2cc(-c3cccc4c(=O)cc(N5CCOCC5)[nH]c34)nn2)c1 [CL27e] |  |  |  | > 80% and 81% | 23%
